The values that follow come from patent EP4582080A1, “DISPENSER FOR MUCOSAL ADMINISTRATION COMPRISING 2-DEOXY-GLUCOSE OR ANALOGUES THEREOF” (G.ST Antivirals GmbH, priority 2024, dated 2025).

The nature of data set [1]: Imine (Schiff's base) formation of 2-DG with L-lysine in buffer. It counts as physicochemical. Here is the method: The present invention is further illustrated by the following figures and examples, without being restricted thereto. • Fig. 1: Imine formation of 2-deoxy-D-glucose (2-DG) with L-lysine in citric acid•Na2HPO4 buffer (pH 7) at different 2-DG concentrations incubated at 37 °C. Indicated values are means (n=4) ± SEM. • Fig. 2: Imine formation of 2-deoxy-D-glucose (2-DG, 35mg/mL) with L-lysine (O.lmg/mL) in citric acid•Na2HPO4 buffer at different pH values incubated at 37 °C. Indicated values are means (n=4) ± SEM. • Fig. 3: Imine formation of 2-deoxy-D-glucose (2-DG, 35mg/mL) with L-lysine (O.lmg/mL) in citrate buffer at different pH values incubated at 37 °C. Indicated values are means (n=4) ± SEM. • Fig. 4: Imine formation of 2-deoxy-D-glucose (2-DG, 35mg/mL) with L-lysine (O.lmg/mL) in tartrate buffer at different pH values incubated at 37 °C. Indicated values are means (n=4) ± SEM. • Fig. 5: Imine formation of 2-deoxy-D-glucose (2-DG, 35mg/mL) with L-lysine (O.lmg/mL) in maleate buffer at different pH values incubated at 37 °C. Indicated values are means (n=4) ± SEM. • Fig. 6: Mucus penetration of 2-deoxy-D-glucose (2-DG), 2-fluoro-2-deoxy-D-glucose (2-FDG) or 2-fluoro-2-deoxy-D-mannose (2-FDM) (all 35mg/mL) in citrate buffer at pH5 and pH7, incubated for 30min at 37 °C. […]

A short description of data set [2]: Mucus penetration through mucus on a semipermeable membrane, measured via mass spectrometry. Format: in vitro ADME. Particulars: 35mg/mL in citrate buffer, pH5 versus pH7, 30min at 37 °C (Fig. 6). Here is the method:
The present invention is further illustrated by the following figures and examples, without being restricted thereto. • Fig. 1: Imine formation of 2-deoxy-D-glucose (2-DG) with L-lysine in citric acid•Na2HPO4 buffer (pH 7) at different 2-DG concentrations incubated at 37 °C. Indicated values are means (n=4) ± SEM. • Fig. 2: Imine formation of 2-deoxy-D-glucose (2-DG, 35mg/mL) with L-lysine (O.lmg/mL) in citric acid•Na2HPO4 buffer at different pH values incubated at 37 °C. Indicated values are means (n=4) ± SEM. • Fig. 3: Imine formation of 2-deoxy-D-glucose (2-DG, 35mg/mL) with L-lysine (O.lmg/mL) in citrate buffer at different pH values incubated at 37 °C. Indicated values are means (n=4) ± SEM. • Fig. 4: Imine formation of 2-deoxy-D-glucose (2-DG, 35mg/mL) with L-lysine (O.lmg/mL) in tartrate buffer at different pH values incubated at 37 °C. Indicated values are means (n=4) ± SEM. • Fig. 5: Imine formation of 2-deoxy-D-glucose (2-DG, 35mg/mL) with L-lysine (O.lmg/mL) in maleate buffer at different pH values incubated at 37 °C. Indicated values are means (n=4) ± SEM. • Fig. 6: Mucus penetration of 2-deoxy-D-glucose (2-DG), 2-fluoro-2-deoxy-D-glucose (2-FDG) or 2-fluoro-2-deoxy-D-mannose (2-FDM) (all 35mg/mL) in citrate buffer at pH5 and pH7, incubated for 30min at 37 °C.
We measured the mucus penetration potential in the following manner: After applying mucus onto a semipermeable membrane, formulations containing 2-DG or analogues at indicated pH were applied onto the mucus. Penetrated 2-DG or analogues was measured via mass spectrometry.

Consider `O=CC[C@@H](O)[C@H](O)[C@H](O)CO` [2-DG, 2-deoxy-D-glucose], for which the Imine formation entry was “distinct lowering in the formation of Schiff's bases” in data set [1] (2-DG 35mg/mL, L-lysine (O.lmg/mL), acidic pH (pH < 7.0) in citric acid•Na2HPO4, citrate, tartrate, maleate buffers, 37 °C (Fig. 2-5)) and “lead to the formation of Schiff's bases (imines)” in data set [1] (with L-lysine in citric acid•Na2HPO4 buffer (pH 7), different 2-DG concentrations, 37 °C (Fig. 1)). The Mucus penetration entry in data set [2] is given as “increased mucus penetration properties”.
On to `O=C[C@H](F)[C@@H](O)[C@H](O)[C@H](O)CO` [2-FDG, 2-fluoro-2-deoxy-D-glucose], for which, in data set [2], the Mucus penetration entry was “increased mucus penetration properties”.
Still for that read-out and setting: as for `O=C[C@@H](F)[C@@H](O)[C@H](O)[C@H](O)CO` [2-FDM, 2-fluoro-2-deoxy-D-mannose], the entry is “increased mucus penetration properties”.
